Data from the supplement of paper PMC7695840.
“And” between values parts separate entries of the source, which are not always exact repeats. Equal entries are not always repeated. Structures can show the parent of a compound that is named as a salt.

Experiments:
[1] = test system: Staphylococcus aureus MW2 (mecA+); test: IC50 (growth, competition assay); settings: cefoxitin: subinhibitory
Outline: (§1)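 Two fluorescent S. aureus MW2 strains, one carrying and one lacking the resistance gene, were pre-induced, mixed 1:1 and grown unshaken in LB in 1536-well plates for 20 h at 37 °C and 90% humidity with a subinhibitory drug dose set each day. Compounds were tested on five- or nine-point 2-fold gradients in two dye-swapped replicates. DsRed (540/590) and GFP (485/520) signals were scaled per plate between the medians of single-strain controls, and No Treatment was then set to 0.5. For each strain, IC50 was taken as the dose that halved the No Treatment signal, or else the maximal signal.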

[2] = test system: Staphylococcus aureus MW2 delta-mecA (mecA-); test: IC50 (growth, competition assay); settings: cefoxitin: subinhibitory
Outline: as §1

| SMILES | IC50 ([1]; fluorescent label: DsRed) | IC50 ([1]; fluorescent label: GFP) | IC50 ([2]; fluorescent label: DsRed) | IC50 ([2]; fluorescent label: GFP) [µM] |
| --- | --- | --- | --- | --- |
| CC[C@H]1OC(=O)C[C@@H](O)[C@H](C)[C@@H](O[C@@H]2O[C@H](C)[C@@H](O)[C@H](N(C)C)[C@H]2O)[C@@H](CCN2C[C@H](C)C[C@H](C)C2)C[C@@H](C)C(=O)/C=C/C(C)=C/[C@@H]1CO[C@@H]1O[C@H](C)[C@@H](O)[C@@H](OC)[C@H]1OC [MICOTIL] | 18.8 µM | 28.3 µM | 13.4 µM | < 9.85 |
| CCCCCCCCCCCCCCCCOP(=O)([O-])OCC[N+](C)(C)C [MILTEX] | 35.2 µM | 33.7 µM | 31.1 µM | 28.1 |
| CCN1C[C@H](C)n2c(c(O)c3c(=O)n(Cc4ccc(F)c(Cl)c4)nc(C(=O)NC)c32)C1=O [MK-2048] | 80.3 µM | 64 µM | 39.3 µM | 40.9 |
| Cc1cnc(-c2ccccc2C(C)C)nc1NCc1ccc(-n2ccnn2)cc1 [ML323] | 35.3 µM | 49.6 µM | < 9.85 µM | < 9.85 |
| O=C(O)c1ccc(Nc2ncc3c(n2)-c2ccc(Cl)cc2C(c2c(F)cccc2F)=NC3)cc1 [MLN8054] | 13.7 µM | 24.9 µM | 3.89 µM | 2.45 |
| COc1cc(Nc2ncc3c(n2)-c2ccc(Cl)cc2C(c2c(F)cccc2OC)=NC3)ccc1C(=O)O [MLN8237 (Alisertib)] | 12.4 µM | 27.5 µM | < 9.85 µM | < 9.85 |
| O=[N+]([O-])C=Cc1ccc2c(c1)OCO2 [MNS] | 20.5 µM | 27.1 µM | < 9.85 µM | < 9.85 |
| Clc1ccc(COC(Cn2ccnc2)c2ccc(Cl)cc2Cl)c(Cl)c1 (stereo unspecified) [MONISTAT] | < 9.85 µM | < 9.85 µM | < 9.85 µM | < 9.85 |
| O=C(O)C1=C(CSc2nnnn2CS(=O)(=O)O)CS[C@@H]2[C@H](NC(=O)[C@H](O)c3ccccc3)C(=O)N12 [MONOCID] | 98.3 µM | 109 µM | < 9.85 µM | < 9.85 |
| CO[C@@]1(NC(=O)C(C(=O)O)c2ccc(O)cc2)C(=O)N2C(C(=O)O)=C(CSc3nnnn3C)CO[C@@H]21 (stereo partly specified) [MOXAM] | 26.2 µM | 18.5 µM | < 9.85 µM | < 9.85 |
| CO[C@@]12[C@H](COC(N)=O)C3=C(C(=O)C(C)=C(N)C3=O)N1C[C@@H]1N[C@@H]12 [MUTAMYCIN] | < 9.85 µM | < 9.85 µM | < 9.85 µM | < 9.85 |
| c1ccc(-c2ccc(C(c3ccccc3)n3ccnc3)cc2)cc1 (stereo unspecified) [MYCOSPOR] | 15.5 µM | 19.1 µM | 16.8 µM | 10.5 |
| C=CCc1ccc(O)c(-c2cc(CC=C)ccc2O)c1 [Magnolol] | 40.1 µM | 49.9 µM | 12 µM | 8.24 |
| CN1CCN(c2c(F)cc3c(=O)c(C(=O)O)cn4c3c2OCN4C)CC1 [Marbofloxacin] | 6.41 µM | 6.33 µM | 2.09 µM | 1.19 |
| C=C1c2cccc(O)c2C(=O)C2=C(O)[C@]3(O)C(=O)C(C(N)=O)=C(O)[C@@H](N(C)C)[C@@H]3[C@@H](O)[C@H]12 [Methacycline hydrochloride (Physiomycine)] | 0.702 µM | 0.644 µM | < 0.498 µM | < 0.498 |
| CSc1ccc2c(c1)C(N1CCN(C)CC1)Cc1ccccc1S2 (stereo unspecified) [Methiothepin mesylate] | 56.7 µM | 55.3 µM | 21.3 µM | 19.1 |
| COCC(=O)O[C@]1(CCN(C)CCCc2nc3ccccc3[nH]2)CCc2cc(F)ccc2[C@@H]1C(C)C [Mibefradil dihydrochloride] | 41.1 µM | 51.9 µM | 16.4 µM | 11.2 |
| CCCCCCCCCCCCCCCCOP(=O)([O-])OCC[N+](C)(C)C [Miltefosine (Hexadecylphosphocholine)] | > 150 µM | > 150 µM | 36.2 µM | 56.8 |
| CN(C)c1ccc(O)c2c1C[C@H]1C[C@H]3[C@H](N(C)C)C(O)=C(C(N)=O)C(=O)[C@@]3(O)C(O)=C1C2=O [Minocycline hydrochloride] | < 9.85 µM | < 9.85 µM | < 9.85 µM | < 9.85 |
| CC[C@@]1([C@@H]2O[C@@H]([C@H]3O[C@@](O)(CO)[C@H](C)C[C@@H]3C)C[C@@H]2C)CC[C@H]([C@]2(C)CC[C@]3(C[C@H](O)[C@@H](C)[C@@H]([C@@H](C)[C@@H](OC)[C@H](C)C(=O)O)O3)O2)O1 [Monensin sodium salt (Coban)] | 2.46 µM and < 9.85 µM | 8.62 µM and 13.9 µM | 3.16 µM and < 9.85 µM | < 0.498 |
| COc1c(N2C[C@@H]3CCCN[C@@H]3C2)c(F)cc2c(=O)c(C(=O)O)cn(C3CC3)c12 [Moxifloxacin hydrochloride] | < 0.498 µM | < 0.498 µM | < 0.498 µM | < 0.498 |
| Cc1ccc(S(=O)(=O)N[C@@H](Cc2ccccc2)C(=O)CCl)cc1 [N-p-Tosyl-L-phenylalanine chloromethyl ketone] | < 9.85 µM | < 9.85 µM | < 9.85 µM | < 9.85 |
| CCOc1ccc2ccccc2c1C(=O)N[C@@H]1C(=O)N2[C@@H]1SC(C)(C)[C@@H]2C(=O)O [NALLPEN] | < 9.85 µM | < 9.85 µM | < 9.85 µM | < 9.85 |
| CC[C@@H](C(=O)O)[C@@H]1O[C@@H]([C@@H](C)[C@H](O)[C@H](C)C(=O)[C@H](CC)[C@H]2O[C@]3(C=C[C@@H](O)[C@]4(CC[C@@](C)([C@H]5CC[C@](O)(CC)[C@H](C)O5)O4)O3)[C@H](C)C[C@@H]2C)[C@@H](C)C[C@@H]1C [NARASIN] | < 9.85 µM | < 9.85 µM | < 9.85 µM | < 9.85 |
| N=C(N)c1ccc(OCCCCCOc2ccc(C(=N)N)cc2)cc1 [NEBUPENT] | 16.2 µM | 23.6 µM | 14.5 µM | 13.7 |
| O=C(Nc1ccc([N+](=O)[O-])cc1Cl)c1cc(Cl)ccc1O [NICLOSIDE] | < 9.85 µM | < 9.85 µM | < 9.85 µM | < 9.85 |
| O=C(N/N=C/c1ccc([N+](=O)[O-])o1)c1ccc(O)cc1 [NIFUROXAZIDE] | < 9.85 µM | 54.6 µM | 46.2 µM | < 9.85 |
| CC(C)[C@H]1c2ccc(F)cc2CC[C@@]1(CCN(C)CCCc1nc2ccccc2[nH]1)OC(=O)C1CC1 [NNC 55-0396] | 14.8 µM | 14.9 µM | < 9.85 µM | < 9.85 |
| CS(=O)(=O)c1ccc([C@@H](O)[C@@H](CF)NC(=O)C(Cl)Cl)cc1 [NUFLOR] | < 9.85 µM | < 9.85 µM | < 9.85 µM | < 9.85 |
